How the values were obtained:
[1] = tested on: blowfly larvae (Lucilia cuprina); experiment: Blowfly larval bioassay; assay type: in vivo; conditions: for Blowfly bioassay, pupation, IC50: L. cuprina LS strain, number of pupae on Day 9 vs controls, 2 experiments; for Pupation IC50 relative to larval weight gain IC50: ratio of the two bioassay IC50 values; for Insecticidal activity in the blowfly bioassay (in words): blowfly larval bioassay
[2] = tested on: HDAC activity of nuclear extracts from blowfly eggs; experiment: Fluorometric HDAC enzyme assay with nuclear extracts from blowfly eggs; assay type: biochemical, Lucilia cuprina; conditions: blowfly egg nuclear extract IC50 comparison
[3] = larval bioassay IC50 comparison

SMILES | Blowfly bioassay, pupation, IC50 [1] | other results
CCCC(=O)OCOC(=O)C(C)(C)C [AN-9] | >1000 μg/assay | –
CCC(=O)CCCCC[C@@H]1NC(=O)[C@H]2CCCCN2C(=O)[C@H]([C@@H](C)CC)NC(=O)[C@H](Cc2cn(OC)c3ccccc23)NC1=O [Apicidin] | 489 μg/assay | Pupation IC50 relative to larval weight gain IC50 [1]: 6 fold
O=C(/C=C/c1cccc(S(=O)(=O)Nc2ccccc2)c1)NO [Belinostat] | >1000 μg/assay | –
C#Cc1cccc(Nc2ncnc3cc(OC)c(OCCCCCCC(=O)NO)cc23)c1 [CUDC-101] | >1000 μg/assay | –
COc1ccc(-c2nc(N3CCOCC3)c3sc(CN(C)c4ncc(C(=O)NO)cn4)cc3n2)cn1 [CUDC-907] | 13.8 μg/assay | Potency against blowfly larval growth relative to cyromazine (fold less potent) [1, 3]: approximately 10 fold; Pupation IC50 relative to larval weight gain IC50 [1]: approximately equal
Nc1nc(N)nc(NC2CC2)n1 [Cyromazine] | 1.54 μg/assay | –
N#Cc1c(N)nc(NC2CC2)nc1N [Dicyclanil] | 0.0634 μg/assay | –
O=C(NC(=O)c1c(F)cccc1F)Nc1ccc(Cl)cc1 [Diflubenzuron] | 0.119 μg/assay | –
Nc1ccccc1NC(=O)c1ccc(CNC(=O)OCc2cccnc2)cc1 [Entinostat] | 640 μg/assay | –
CCN(CC)Cc1ccc2cc(COC(=O)Nc3ccc(C(=O)NO)cc3)ccc2c1 [Givinostat] | >1000 μg/assay | –
Nc1ccccc1NC(=O)c1ccc(CNc2nccc(-c3cccnc3)n2)cc1 [Mocetinostat] | >1000 μg/assay | –
CCCCN(Cc1ccc(C(=O)NO)cc1)C(=O)Nc1ccccc1 [Nexturostat, Nexturastat A] | >1000 μg/assay | –
Cc1[nH]c2ccccc2c1CCNCc1ccc(/C=C/C(=O)NO)cc1 [Panobinostat] | 393 μg/assay | –
C=C1C(=O)O[C@H]2[C@H]1CC/C(C)=C/CC[C@@]1(C)O[C@@H]21 [Parthenolide, parthenolide] | >1000 μg/assay | Insecticidal activity in the blowfly bioassay (in words) [1]: no insecticidal activity
CCCCc1nc2cc(/C=C/C(=O)NO)ccc2n1CCN(CC)CC [Pracinostat] | >1000 μg/assay | –
O=C(NCCSSCCNC(=O)/C(Cc1ccc(O)c(Br)c1)=N/O)/C(Cc1ccc(O)c(Br)c1)=N/O [Psammaplin A] | 93.4 μg/assay | –
Cn1cc(CNCC2CCN(c3ncc(C(=O)NO)cn3)CC2)c2ccccc21 [Quisinostat] | 274 μg/assay | –
CN(C)Cc1ccc(S(=O)(=O)n2ccc(/C=C/C(=O)NO)c2)cc1 [Resminostat] | >1000 μg/assay | –
C/C=C1\NC(=O)[C@H]2CSSCC/C=C/[C@H](CC(=O)N[C@H](C(C)C)C(=O)N2)OC(=O)[C@H](C(C)C)NC1=O [Romidepsin] | 0.196 μg/assay | Potency against blowfly larval growth relative to cyromazine (fold more potent) [1, 3]: 10 fold; Potency against blowfly larval growth relative to dicyclanil ([1]; larval bioassay IC50 comparison, in words): equipotent; Pupation IC50 relative to larval weight gain IC50 [1]: ≤ 2 fold; Potency in nuclear extract HDAC assay relative to quisinostat (fold more potent) [2]: approximately 600 fold
CC(/C=C/C(=O)NO)=C\[C@@H](C)C(=O)c1ccc(N(C)C)cc1 [Trichostatin] | 20.6 μg/assay | Potency against blowfly larval growth relative to cyromazine (fold less potent) [1, 3]: approximately 10 fold; Pupation IC50 relative to larval weight gain IC50 [1]: ≤ 2 fold
O=C(CCCCCCC(=O)Nc1ccc([C@H]2O[C@@H](CSc3nc(-c4ccccc4)c(-c4ccccc4)o3)C[C@@H](c3ccc(CO)cc3)O2)cc1)NO [Tubacin] | >1000 μg/assay | Insecticidal activity in the blowfly bioassay (in words) [1]: inactive
CN1CCc2c(c3ccccc3n2Cc2ccc(C(=O)NO)cc2)C1 [Tubastatin A] | >1000 μg/assay | Insecticidal activity in the blowfly bioassay (in words) [1]: inactive
CCCC(CCC)C(=O)O [Valproic acid] | >1000 μg/assay | –
